Entries after “also recorded” stand apart in the source; their conditions may differ.
Columns and labels:
[1] = system: rats; experiment: Food intake after central (ICV) glucose or lactate; type: in vivo, rat
[2] = system: high fat-fed rats; experiment: ICV glucose or lactate in high fat-fed rats: plasma triglycerides and VLDL secretion; type: in vivo, rat
Protocol: High fat feeding. Male Sprague-Dawley rats were fed a highly palatable high fat diet for three days. These rats developed hyperinsulinemia and hepatic insulin resistance (Morgan et al., 2004). […] In a separate set of studies, lipoprotein secretion studies were performed at the beginning of the ICV infusions.

[3] = system: conscious rats; experiment: Intravenous lactate infusion with or without MBH oxamate: plasma TG and hepatic TG-VLDL production; type: in vivo, rat
Protocol: (§1) Infusion protocols. The in vivo infusion experiments lasted a total of 360 min, and the experiments were carried out in rats that had their food removed ˜5 h before the experiments. Thus, at the time of the experiment, the rats are in post-absorptive state since their stomach should be completely emptied by 5 h fasting. […] This ICV glucose protocol physiologically elevate hypothalamic glucose concentration by ˜70% as previously described (Lam et al., 2005b) and is similar to that induced by a doubling of the circulating glucose levels (Lam et al., 2005b). During the ICV infusions, we monitored the plasma metabolite levels under pre-infused (0 min), basal (180-240 min) and pancreatic clamp (300-360 min) conditions. […] A basal insulin-pancreatic clamp was performed in the final 2 h (240-360 min) of the study as previously described (Lam et al., 2005b). In brief, a continuous infusion of insulin (1 mU/kg.min) and somatostatin (3 μg/kg.min) was administered, and a variable infusion of a 25% glucose solution was started and periodically adjusted to clamp and maintain the plasma glucose concentration at ˜8 mM. […] To examine the time-dependent effects of ICY glucose on plasma triglycerides, ICY (5 μl/h) 2 mM D-glucose or mannitol was administrated for 210 min and plasma triglyceride levels were monitored at 0, 20, 60, 120, 180, 210 min. […] Plasma triglycerides were monitored under basal, pancreatic clamp and tyloxapol-treated conditions. At the end of the infusion experiments, rats were anesthetized and tissue samples were freeze-clamped in situ with aluminum tongs pre-cooled in liquid nitrogen. All tissue samples were stored at −80° C. for subsequent analysis.
VLDL are decreased in the hours following an acute bout of exercise. […] To investigate the mechanism by which lactate lowers plasma TG levels, the rate of production of hepatic TG-enriched VLDL was measured.

[4] = system: conscious rats; experiment: Circulating lactate infusion with central LDH inhibitor or KATP blocker: glucose kinetics during pancreatic clamps; settings: pancreatic clamps
[5] = system: hepatic VLDL secretion; experiment: Lipoprotein (VLDL) secretion studies with tyloxapol; NMR particle size; type: in vivo, rat; settings: increased central metabolism of lactate to pyruvate, rats (Example 3)
Protocol: Lipoproteins secretion and particles concentration and size measurements. Tyloxapol (600 mg/kg; ˜1 min) was intravenously injected to inhibit endogenous lipoprotein lipase. This high dose of tyloxapol ensured complete inhibition of triglyceride clearance during VLDL secretion studies. Plasma samples were taken every 30 min for triglycerides analysis and for lipoprotein profiling. Plasma VLDL particles concentration and size were determined by nuclear magnetic resonance spectroscopy (lipoprofile-II test) at Liposcience as previously described (Otvos et al., 1991; 1992). This NMR lipoprofile-II test is based on the assumption that each plasma lipoprotein particle of a particular size gives its own characteristic lipid NMR signal. The intensity of the signal is also in proportion to the concentration of the particle. The diameter range for large, medium and small VLDL is >60 nm, 35-60 nm, and 27-35 nm, respectively.
Selective hepatic branch vagotomy. The surgeries were performed as described (Lam et al., 2005c).
Treatment with SCD1 ASO. Five and two days before the lipoprotein secretion studies, rats received a single intra-peritoneal injection of either SCD1 or scrambled (SCR) ASO (100 mg/kg of body weight). […] In a separate set of studies, rats received intra-portal injection of either SCD1 or SCR ASO (40 mg/kg of body weight) (Gutierrez-Juarez et al., 2006) three days before the lipoprotein secretion studies.
Portal oleate infusion. Chronic portal catheter was implanted and 7 days were allowed for rat recovery. Oleic acid (45 mM; dissolved in 45% HBP) was infused at a rate of 40 μl/h for 2.5 h (1 h before the 90 min lipoprotein secretion studies). This dose enabled the reconstitution of hepatic oleyl-CoA levels back to normal during portal SCD1 ASO (FIG. 11c) or ICV glucose studies (FIG. 11d).

[6] = system: high fat-fed rats; experiment: Central glucose or lactate in regular chow vs 3-day high fat diet-fed animals: glucose production; type: in vivo, rat; settings: central administration
From the text: The latter is an excellent model for diet-induced insulin resistance.

[7] = system: conscious rats; experiment: ICV glucose or lactate infusion with pancreatic basal insulin clamp: plasma glucose and liver glucose production; type: in vivo, rat
From the text: We hypothesize that the hypothalamic sensing of glucose-derived pyruvate is a novel regulator of endogenous glucose production (GP). […] We propose that an increase in neuronal pyruvate levels is a hypothalamic signal of nutrient availability.
Long chain fatty acids in the brain decrease glucose production (GP) by the liver via activation of hypothalamus ATP-sensitive (KATP) channels. Here we tested whether (A) direct administration of glucose in the third cerebral ventricle can alter glucose production by the liver, and (B) whether this effect requires its metabolism in the TCA cycle.

[8] = system: male Sprague-Dawley rats; experiment: ICV infusion: plasma triglycerides and metabolites under basal and pancreatic clamp conditions; type: in vivo, rat
From the text: Animal preparation. We studied 10-week-old male Sprague-Dawley rats. Rats underwent stereotaxic surgery to indwell single catheters in the third cerebral ventricle {intracerebroventricular (ICV)(Obici et al., 2001) or bilateral catheters into the mediobasal hypothalamus (Lam et al., 2005c). One week later, we placed indwelling catheters in the internal jugular vein and carotid artery for sampling and infusion during the in vivo experiments (Obici et al., 2001). Recovery from surgery was monitored by measuring daily food intake and weight gain for 4-5 days after surgery.
as §1
Biochemical analyses. Plasma glucose concentrations were measured by the glucose oxidase method (Glucose Analyzer II, Beckman Instruments, Inc., Fullerton, Calif.). […] FFA concentrations were determined by an enzyme assay in accordance with the manufacturer's specifications (Waco Pure Chemical Industries. Osaka. Japan). Plasma insulin concentrations (with rat and porcine insulin standards) were measured by radioimmunoassay (RIA). Plasma adiponectin concentrations were measured by RIA (Linco Inc., Austin, Tex., USA). Liver triglycerides were measured as described (Muse et al., 2004).
Calculations. Statistical analysis was done by unpaired Student's t test or analysis of variance as appropriate. Data are presented as means±SEM. All values were collapsed into a single value for each animal prior to the calculation of mean. The time period 180-240 min was averaged for the basal and the time period 300-360 min was averaged for the clamp conditions.

elevation of plasma lactate ([4]; intravenous infusion of lactate): ~3 fold
Compound: C[C@H](O)C(=O)O [lactate, L-lactate]
food intake overnight ([1]; central administration): inhibits food intake overnight | decrease in food intake ([1]; the day following ICV injection): ~40% | rate of appearance of VLDL-triglycerides in plasma ([2]; HF rats, tyloxapol): decreased the rate of appearance of VLDL-triglycerides in plasma to levels similar to those of SC rats | circulating levels of triglycerides ([2]; high fat-fed rats): effectively lowered the circulating levels of triglycerides to levels similar to those of rats on a standard chow | plasma TG levels ([3]; i.v. lactate 100 μmol•kg-1•min-1, i.v. saline 0.28±0.09): 0.11 ± 0.02 mM | rate of production of hepatic TG-enriched VLDL ([3]; i.v. lactate infusion, i.v. saline 0.059±0.003): 0.041 ± 0.002 mM/min | decrease in VLDL production ([3]; i.v. lactate vs i.v. saline): 31% | lowering of plasma TG levels ([3]; i.v. lactate vs i.v. saline): > 50% | VLDL secretion ([3]; physiological increase in plasma lactate): sufficient to inhibit VLDL secretion | plasma triglyceride ([3]; ~two-fold increase in circulating lactate, basal and clamp conditions): significant decrease in plasma triglyceride in both conditions | glucose infusion kinetics ([4]; intravenous infusion of lactate alone): did not affect glucose infusion kinetics | suppression of hepatic TG-enriched VLDL production [5]: ~40% | glucose production ([6]; 3-day high fat diet-fed animals): entirely preserved; also recorded: lowered glucose production | glucose production ([6]; regular chow animals): lowered glucose production | circulating glucose levels ([7]; central (ICV) administration): sufficient to markedly diminish circulating glucose levels; also recorded: lowered circulating glucose levels | gluconeogenesis and glycogenolysis ([7]; central administration): inhibited gluconeogenesis and glycogenolysis | liver glucose production, G6Pase flux and mRNA ([7]; central administration): reduced liver glucose production, G6Pase flux and mRNA | plasma glucose concentrations ([7]; four hour ICV infusion 5 μl/h (glucose 2 mM, lactate 5 mM), control 150±4): 129 ± 3 mg/dL | exogenous glucose infusion rate required to maintain euglycemia ([7]; pancreatic basal insulin clamps, central administration): increased exogenous glucose infusion rate | GP (glucose production) ([7]; pancreatic clamps, plasma glucose and insulin at basal, ICV infusion, control 10.4±0.1 (glucose), 11.7±0.6 (lactate)): 6.5 ± 0.6 mg/kg/min | plasma free fatty acids levels ([8]; ICV infusion): did not affect plasma free fatty acids levels | plasma triglyceride levels ([8]; ICV infusion (glucose 2 mM, L-lactate 5 mM)): markedly decreased plasma triglycerides levels | suppression of plasma TG levels ([8]; increased central metabolism of lactate to pyruvate, rats (Example 3)): ~50%

— US20110207694A1, “MAMMALIAN HYPOTHALAMIC NUTRIENT MODULATION OF GLUCOSE METABOLISM” (priority 2005, published 2011)
